Bridge positions count the residues as written; N and C are the ends. Peptide text beside a SMILES is read from it.
Tested on: E. coli ATCC 25922
Assay type: cell-based, Escherichia coli
Conditions: E. coli ATCC 25922, M9gluCAAT, 37°C, 20 h; mode across four biological replicates
Protocol: Strain ATCC 25922GFP (ATCC, Virginia, USA), which carries a GFP-expressing plasmid, was selected for biofilm experiments. The strain’s ability to form biofilms was first verified at 37°C using Congo Red staining on agar plate containing M9gluCAAT. Congo Red dye binds curli, a major component of the biofilm extracellular matrix. Strain ATCC 25922 (lacking the GFP-expressing plasmid) was used for MIC determination (to avoid interference from the presence of ampicillin required to maintain the plasmid) following the standard growth protocol described above.
To determine the minimal inhibitory concentration (MIC) of the selected AMPs against either MG1655 or ATCC 25922 E. coli strains, exponentially growing cells were diluted in fresh medium to an OD = 10^−6 (~500 cells/mL) and mixed 50:50 with titrated AMP concentrations (which were chosen to be over a range that included the MIC) in a 96-well plate (flat bottom with low evaporation lid, 3595, Corning, Arizona, USA). A final OD of 5 × 10^−7 corresponds to ~250 cells/mL. OD curves were sampled every 5 min for a total of 48 h using a microplate reader (BioTek Synergy 2, Agilent Technologies Inc., California, USA). Raw data were exported as a text file and analysed using a custom-written Python script (microplate_reader_analysis.py). To measure maximum growth rates, the log(OD) was fitted using a linear regression over a 12-point moving window (60 min), which provides the instantaneous growth rate (log(OD)/h), from which the global maximum was computed. The MIC was defined as the minimum AMP concentration for which the maximum growth rate was < 0.2 log(OD)/h within the first 20 h of incubation. Each MIC experiment was performed independently at least three times (with at least two technical replicates each), and the mode across all replicates was taken as the final MIC; in the rare cases of a tie, an additional replicate was performed, which was sufficient to resolve it.

CC[C@H](C)[C@@H]1NC(=O)CNC(=O)[C@H](CCCNC(=N)N)NC(=O)[C@H](Cc2ccc(O)cc2)NC(=O)[C@@H]2CSSC[C@H](NC1=O)C(=O)N[C@@H](Cc1ccc(O)cc1)C(=O)N[C@@H](CCCNC(=N)N)C(=O)N[C@@H](CCCNC(=N)N)C(=O)N[C@H](C(=O)N[C@@H](CCCNC(=N)N)C(N)=O)CSSC[C@H](NC(=O)[C@H](Cc1c[nH]c3ccccc13)NC(=O)[C@@H](N)CCCCN)C(=O)N[C@@H](Cc1ccccc1)C(=O)N[C@@H](CCCNC(=N)N)C(=O)N[C@@H](C(C)C)C(=O)N2 [Tac1, tachyplesin-1] (H-KWCFRVCYRGICYRRCR-NH2; disulfide 3-16, 7-12 (inferred); N-terminus assumed)
MIC (mode MIC): 1.2 µM
